Laboratory results published in US10167272B2, “Muscarinic agonists” (Heptares Therapeutics Limited, priority 2015, dated 2019).
Where two headings read alike, the source gives them in different places.

How the values were obtained:
Type in all cases: cell-based
[1] = molecular target: T1, human muscarinic M3 receptor (Homo sapiens, UniProt P20309); assay: Alphascreen Surefire phospho-ERK1/2 functional assay, M3; settings: phospho-ERK1/2; for EC50: read-out: pEC50 M3 (converted); for Emax: CHO, read-out: % Emax cf. ACh (M3), CHO cells stably expressing human M3
T1 construct: expressed in transfected cells
T1 sequence (P20309 whole entry): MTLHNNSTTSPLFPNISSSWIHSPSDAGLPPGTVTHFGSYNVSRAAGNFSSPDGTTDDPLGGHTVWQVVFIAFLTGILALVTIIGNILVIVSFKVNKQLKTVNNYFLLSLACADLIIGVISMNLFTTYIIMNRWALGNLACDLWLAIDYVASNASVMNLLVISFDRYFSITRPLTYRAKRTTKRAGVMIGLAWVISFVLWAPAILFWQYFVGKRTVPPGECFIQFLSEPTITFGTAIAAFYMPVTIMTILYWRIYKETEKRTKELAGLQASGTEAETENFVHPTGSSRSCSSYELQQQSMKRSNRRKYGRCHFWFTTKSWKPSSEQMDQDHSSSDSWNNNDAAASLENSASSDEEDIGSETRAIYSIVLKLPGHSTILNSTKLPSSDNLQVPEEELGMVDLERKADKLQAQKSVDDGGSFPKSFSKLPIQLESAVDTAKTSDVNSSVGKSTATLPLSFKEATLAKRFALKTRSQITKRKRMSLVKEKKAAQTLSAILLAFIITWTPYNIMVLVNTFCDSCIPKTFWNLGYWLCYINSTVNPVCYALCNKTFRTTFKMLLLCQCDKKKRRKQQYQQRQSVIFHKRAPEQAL
Protocol: (§1) ERK1/2 phosphorylation is a downstream consequence of both Gq/11 and Gi/o protein coupled receptor activation, making it highly suitable for the assessment of M1, M3 (Gq/11 coupled) and M2, M4 receptors (Gi/o coupled), rather than using different assay formats for different receptor subtypes. CHO cells stably expressing the human muscarinic M1, M2, M3 or M4 receptor were plated (25K/well) onto 96-well tissue culture plates in MEM-alpha+10% dialysed FBS. Once adhered, cells were serum-starved overnight. Agonist stimulation was performed by the addition of 5 μL agonist to the cells for 5 min (37° C.). Media was removed and 50 μL of lysis buffer added. After 15 min, a 4 μL sample was transferred to 384-well plate and 7 μL of detection mixture added.

[2] = molecular target: T2, human muscarinic M1 receptor (Homo sapiens, UniProt P11229); assay: Alphascreen Surefire phospho-ERK1/2 functional assay, M1; settings: phospho-ERK1/2; for EC50: read-out: pEC50 M1 (converted); for Emax: CHO, read-out: % Emax cf. ACh (M1), CHO cells stably expressing human M1; for Emax / % Emax cf. ACh (M1): relative to ACh
T2 sequence (P11229 1-460): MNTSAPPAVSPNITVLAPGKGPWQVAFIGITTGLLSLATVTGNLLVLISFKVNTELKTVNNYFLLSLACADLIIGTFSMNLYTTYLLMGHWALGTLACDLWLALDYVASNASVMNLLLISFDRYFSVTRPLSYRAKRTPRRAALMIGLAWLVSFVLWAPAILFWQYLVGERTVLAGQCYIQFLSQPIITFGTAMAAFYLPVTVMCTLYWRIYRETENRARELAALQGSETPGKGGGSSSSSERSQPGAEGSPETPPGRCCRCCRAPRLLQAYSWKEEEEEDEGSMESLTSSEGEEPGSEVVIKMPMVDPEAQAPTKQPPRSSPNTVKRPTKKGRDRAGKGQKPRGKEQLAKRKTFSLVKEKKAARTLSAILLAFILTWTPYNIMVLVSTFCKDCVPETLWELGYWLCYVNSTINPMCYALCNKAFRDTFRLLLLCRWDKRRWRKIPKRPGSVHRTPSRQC
Protocol: as §1

[3] = molecular target: T3, human muscarinic M4 receptor (Homo sapiens, UniProt P08173); assay: Alphascreen Surefire phospho-ERK1/2 functional assay, M4; settings: for Emax: CHO, read-out: % Emax cf. ACh (M4), CHO cells stably expressing human M4; for Emax / % Emax cf. ACh (M4): relative to ACh
T3 construct: expressed in transfected cells
T3 sequence (P08173 1-479): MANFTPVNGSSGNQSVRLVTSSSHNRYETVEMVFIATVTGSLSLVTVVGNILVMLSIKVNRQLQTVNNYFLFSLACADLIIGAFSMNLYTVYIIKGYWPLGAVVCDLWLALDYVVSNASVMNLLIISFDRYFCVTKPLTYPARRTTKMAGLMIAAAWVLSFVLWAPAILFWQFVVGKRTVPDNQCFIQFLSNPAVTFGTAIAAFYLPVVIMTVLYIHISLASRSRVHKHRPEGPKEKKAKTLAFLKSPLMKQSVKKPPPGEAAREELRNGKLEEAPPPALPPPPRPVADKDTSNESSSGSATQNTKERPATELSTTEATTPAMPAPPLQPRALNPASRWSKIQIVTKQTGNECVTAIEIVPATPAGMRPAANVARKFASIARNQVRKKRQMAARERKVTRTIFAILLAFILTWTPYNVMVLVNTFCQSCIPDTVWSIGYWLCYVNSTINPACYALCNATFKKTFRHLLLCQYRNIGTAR

[4] = molecular target: T4, human muscarinic M2 receptor (Homo sapiens, UniProt P08172); assay: Alphascreen Surefire phospho-ERK1/2 functional assay, M2; settings: for EC50: CHO cells stably expressing human M2, read-out: pEC50 M2 (converted); for Emax: CHO, read-out: % Emax cf. ACh (M2), CHO cells stably expressing human M2, relative to ACh
T4 sequence (P08172 1-466): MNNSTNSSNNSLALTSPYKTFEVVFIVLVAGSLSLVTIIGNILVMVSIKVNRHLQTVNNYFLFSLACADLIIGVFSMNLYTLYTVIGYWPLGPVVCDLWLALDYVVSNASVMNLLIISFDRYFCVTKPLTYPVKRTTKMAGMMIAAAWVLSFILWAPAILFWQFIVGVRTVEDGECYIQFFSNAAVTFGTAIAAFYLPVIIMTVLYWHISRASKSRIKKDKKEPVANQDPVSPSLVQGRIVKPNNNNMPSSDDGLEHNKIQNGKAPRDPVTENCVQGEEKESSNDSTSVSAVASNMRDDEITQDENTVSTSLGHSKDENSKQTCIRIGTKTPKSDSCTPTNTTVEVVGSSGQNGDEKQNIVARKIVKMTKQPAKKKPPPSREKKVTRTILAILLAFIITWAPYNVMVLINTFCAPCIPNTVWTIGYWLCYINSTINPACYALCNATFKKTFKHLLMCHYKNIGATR
Protocol: as §1

[5] = CHO cells stably expressing human M3
[6] = CHO cells stably expressing human M1
[7] = CHO cells stably expressing human M4, phospho-ERK1/2, read-out: pEC50 M4 (converted)
[8] = CHO cells stably expressing human M4, phospho-ERK1/2

| Compound | EC50 [1, 5] [nM] | Emax ([1]; relative to ACh) [%] | EC50 [2, 6] [nM] | Emax [2] [%] | EC50 [3, 7] [nM] | Emax ([3]; phospho-ERK1/2) [%] | EC50 [4] [nM] | Emax [4] [%] | pEC50 M3 [1, 5] | % Emax cf. ACh (M3) ([1]; CHO cells stably expressing human M3, relative to ACh) [%] | pEC50 M1 [2, 6] | % Emax cf. ACh (M1) [2, 6] [%] | pEC50 M4 [3, 8] | % Emax cf. ACh (M4) [3, 8] [%] | pEC50 M2 ([4]; CHO cells stably expressing human M2) | % Emax cf. ACh (M2) ([4]; CHO cells stably expressing human M2, relative to ACh) [%] | % Emax cf. ACh (M1) ([2]; CHO cells stably expressing human M1, listed as 2-21 isomer 2) [%] | EC50 ([3]; pEC50 M4) [nM] |
| --- | --- | --- | --- | --- | --- | --- | --- | --- | --- | --- | --- | --- | --- | --- | --- | --- | --- | --- |
| CCOC(=O)N1CCC2(CC(N3CCC(N(CCO)CC(F)(F)F)CC3)C2)C1 (single isomer, unassigned) [2-51 Isomer 2] | > 20000 | 22 | 316 | 84 | 20 | 89 | > 20000 | 18 |  |  |  |  |  |  |  |  |  |  |
| CCOC(=O)N1CCC2(CC(N3CCC(N(CC)CCC#N)CC3)C2)C1 (single isomer, unassigned) [2-55 Isomer 2] | > 20000 | 5 | > 20000 | 161 | 25.1 | 65 | > 20000 | 15 |  |  |  |  |  |  |  |  |  |  |
| CCOC(=O)N1CCC2(CC(N3CCC(N(CC)C(C)=O)CC3)C2)C1 (single isomer, unassigned) [2-2 Isomer 2] |  |  |  |  |  |  |  |  | < 4.7 | 9 | 6.2 | 91 | 7.4 | 99 | < 4.7 | 18 |  |  |
| CCOC(=O)N1CCC2(CC(N3CCC(N(CC4(C)CCC4)C(C)=O)CC3)C2)C1 (single isomer, unassigned) [Example 2-21 Isomer 2] | > 20000 | 22 | 63.1 |  | 158 |  | > 20000 | 18 |  |  |  |  |  |  |  |  | 89 |  |
| CCOC(=O)N1CCC2(CC(N3CCC(N(C(C)=O)C4CC4)CC3)C2)C1 (single isomer, unassigned) [2-3 Isomer 2] | > 20000 | 6 | 200 |  | 31.6 |  | > 20000 | 13 |  |  |  | 93 |  | 93 |  |  |  |  |
| CCOC(=O)N1CCC2(CC(N3CCC(N(CC(F)(F)F)C4CC4)CC3)C2)C1 (single isomer, unassigned) [2-48 Isomer 2] | 7940 | 53 | 39.8 | 117 | 39.8 | 75 | 12600 | 68 |  |  |  |  |  |  |  |  |  |  |
| CCOC(=O)N1CCC2(CC(N3CCC(N(CC(F)F)C(C)=O)CC3)C2)C1 (single isomer, unassigned) [2-24 Isomer 2] | > 20000 | 17 | 398 | 91 | 10 | 124 | > 20000 | 5 |  |  |  |  |  |  |  |  |  |  |
| CCN(C(C)=O)C1CCN(C2CCC3(C2)CN(C(=O)OC)C3)CC1 (single isomer, unassigned) [3-2 Isomer 2] | > 20000 | 37 | 316 | 42 | 31.6 | 94 | > 20000 | 29 |  |  |  |  |  |  |  |  |  |  |
| CCOC(=O)N1CCC2(CC(N3CCC(N(CC(C)(C)OC)C(C)=O)CC3)C2)C1 (single isomer, unassigned) [2-29 Isomer 2] | > 20000 | 73 | 200 |  | 158 |  | 1260 | 29 |  |  |  | 99 |  | 84 |  |  |  |  |
| CCOC(=O)N1CCC2(CC(N3CCC(N(CC4(OC)CCC4)C(C)=O)CC3)C2)C1 (single isomer, unassigned) [2-30 Isomer 2] | > 20000 | 26 | 100 |  | 79.4 |  | 5010 | 42 |  |  |  | 104 |  | 96 |  |  |  |  |
| CCOC(=O)N1CCC2(CC(N3CCC(N(Cc4ccccc4)CC(F)(F)F)CC3)C2)C1 (single isomer, unassigned) [2-59 Isomer 2] | > 20000 | 14 | > 20000 | 9 | 79.4 | 52 | > 20000 | 9 |  |  |  |  |  |  |  |  |  |  |
| CCOC(=O)N1CCC2(CC(N3CCC(N(Cc4cnco4)CC(F)(F)F)CC3)C2)C1 (single isomer, unassigned) [2-62 Isomer 2] | > 20000 | 11 | 1000 | 85 | 20 | 106 | > 20000 | 12 |  |  |  |  |  |  |  |  |  |  |
| CCOC(=O)N1CCC2(CC(N3CCC(N(CC)CC(F)F)CC3)C2)C1 (single isomer, unassigned) [2-46 Isomer 2] | > 20000 | 12 | 316 | 63 |  | 98 | > 20000 | 5 |  |  |  |  |  |  |  |  |  | 7.94 |
| CCOC(=O)N1CCC2(CC(N3CCC(N(C(=O)C(F)(F)F)C4CC4)CC3)C2)C1 (single isomer, unassigned) [2-4 Isomer 2] | > 20000 | 9 | 200 | 104 | 31.6 | 114 | > 20000 | 3 |  |  |  |  |  |  |  |  |  |  |
| CCOC(=O)N1CCC2(CC(N3CCC(N(CC)CCF)CC3)C2)C1 (single isomer, unassigned) [2-45 Isomer 2] | > 20000 | 16 | 631 | 30 |  | 45 | > 20000 | 9 |  |  |  |  |  |  |  |  |  | 63.1 |
| CCOC(=O)N1CCC2(CC(N3CCC(N(C=O)CC)CC3)C2)C1 (single isomer, unassigned) [2-16 Isomer 2] | > 20000 | 2 | 398 | 89 | 39.8 | 91 | > 20000 | 5 |  |  |  |  |  |  |  |  |  |  |
| CCOC(=O)N1CCC2(CC(N3CCC(C(C)n4cccn4)CC3)C2)C1 (single isomer, unassigned) [2-65 Isomer 2a] | > 20000 | 15 | 1000 |  | 200 |  | > 20000 | 15 |  |  |  | 43 |  | 45 |  |  |  |  |
| CCOC(=O)N1CCC2(CC(N3CCC(N(CCOC)CC(F)(F)F)CC3)C2)C1 (single isomer, unassigned) [2-52 Isomer 2] | > 20000 | 7 | 398 | 93 | 25.1 | 106 | > 20000 | 7 |  |  |  |  |  |  |  |  |  |  |
